Measured values from patent US8163793B2, “Proline derivatives” (Hoffman-La Roche Inc., priority 2009, dated 2012).
Structures can show the parent of a compound that is named as a salt.

Experiments:
Cathepsin S = Cathepsin S (UniProt P25774); assay: Cathepsin enzyme inhibition assay (fluorogenic peptide substrate Z-Val-Val-Arg-AMC), Cathepsin S; assay type: biochemical, human and mouse; settings: enzyme 1 nM, substrate 20 μM, pH 6.5; read-out: CatS IC50
Outline: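 Human or mouse cathepsin S (1 nM) was run in 100 mM potassium phosphate pH 6.5 with 5 mM EDTA, 0.001% Triton X-100 and 5 mM DTT. The rise in AMC fluorescence from cleavage was measured, and IC50 values were calculated by standard methods and expressed in μM.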

Cat L = Cat L (UniProt P07711); assay: Cathepsin enzyme inhibition assay (fluorogenic peptide substrate Z-Val-Val-Arg-AMC), Cathepsin L; assay type: biochemical, human and mouse; settings: enzyme 1 nM, substrate 20 μM, pH 6.5; read-out: CatL IC50
Outline: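 Cathepsin L at 1 nM was mixed with compound, then started with 20 μM Z-Val-Val-Arg-AMC in pH 6.5 potassium phosphate with EDTA, Triton X-100 and 5 mM DTT. AMC fluorescence (ex 360/em 465 nm) was followed over 20 min. IC50 is given in μM.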

SMILES | IC50 (Cathepsin S) | IC50 (Cat L)
Cc1cc(N2C[C@H](S(C)(=O)=O)C[C@H]2C(=O)NC2(C#N)CC2)n(-c2ccnc(Cl)c2)n1 [Example 463, (2S,4R)-1-[2-(2-Chloro-pyridin-4-yl)-5-methyl-2H-pyrazol-3-yl]-4-methanesulfonyl-pyrrolidine-2-carboxylic acid (1-cyano-cyclopropyl)-amide] | 5130 nM | > 25000 nM
N#CC1(NC(=O)[C@@H]2C[C@@H](S(=O)(=O)c3ccccc3Cl)CN2C(=O)C2(c3ccc(OC(F)(F)F)cc3)CC2)CC1 [Example 281, (2S,4R)-4-(2-Chloro-benzenesulfonyl)-1-[1-(4-trifluoromethoxy-phenyl)-cyclopropanecarbonyl]-pyrrolidine-2-carboxylic acid (1-cyano-cyclopropyl)-amide] | 0.28 nM | 145 nM
N#CC1(NC(=O)[C@@H]2C[C@@H](S(=O)(=O)c3ccccc3Cl)CN2C(=O)C2(C(F)(F)F)CC2)CC1 [Example 213, (2S,4R)-4-(2-Chloro-benzenesulfonyl)-1-(1-trifluoromethyl-cyclopropanecarbonyl)-pyrrolidine-2-carboxylic acid (1-cyano-cyclopropyl)-amide] | 0.4 nM | 7970 nM
N#CC1(NC(=O)[C@@H]2C[C@@H](S(=O)(=O)c3ccccc3C(F)(F)F)CN2C(=O)c2ccc(F)cc2)CC1 [Example 106, (2S,4R)-1-(4-Fluoro-benzoyl)-4-(2-trifluoromethyl-benzenesulfonyl)-pyrrolidine-2-carboxylic Acid (1-cyano-cyclopropyl)-amide] | 0.4 nM | ≥ 25000 nM
Cc1cc(N2C[C@H](S(=O)(=O)c3ccc(OCC(F)(F)F)cc3Cl)C[C@H]2C(=O)NC2(C#N)CC2)n(CCc2ccccc2)n1 [Example 484, (2S,4R)-4-[2-Chloro-4-(2,2,2-trifluoro-ethoxy)-benzenesulfonyl]-1-(5-methyl-2-phenethyl-2H-pyrazol-3-yl)-pyrrolidine-2-carboxylic acid (1-cyano-cyclopropyl)-amide] | 3.31 nM | 1550 nM
Cc1cc(N2C[C@H](S(=O)(=O)c3ccc(N4CC(F)(F)C4)cc3C(F)(F)F)C[C@H]2C(=O)NC2(C#N)CC2)n(C2CCC2)n1 [Example 415, (2S,4R)-1-(2-Cyclobutyl-5-methyl-2H-pyrazol-3-yl)-4-[4-(3,3-difluoro-azetidin-1-yl)-2-trifluoromethyl-benzenesulfonyl]-pyrrolidine-2-carboxylic acid (1-cyano-cyclopropyl)-amide] | 0.215 nM | 11700 nM
N#CC1(NC(=O)[C@@H]2C[C@@H](S(=O)(=O)c3ccc(OCC(F)(F)F)cc3Cl)CN2C(=O)C2(c3cccc(C(F)(F)F)c3)CC2)CC1 [Example 311, (2S,4R)-4-[2-Chloro-4-(2,2,2-trifluoro-ethoxy)-benzenesulfonyl]-1-[1-(3-trifluoromethyl-phenyl)-cyclopropanecarbonyl]-pyrrolidine-2-carboxylic acid (1-cyano-cyclopropyl)-amide] | 0.155 nM | 745 nM
N#CC1(NC(=O)[C@@H]2C[C@@H](S(=O)(=O)c3ccc(OCC(F)(F)F)cc3Cl)CN2C(=O)C2(c3ccc(F)cc3)CC2)CC1 [Example 295, (2S,4R)-4-[2-Chloro-4-(2,2,2-trifluoro-ethoxy)-benzenesulfonyl]-1-[1-(4-fluoro-phenyl)-cyclopropanecarbonyl]-pyrrolidine-2-carboxylic acid (1-cyano-cyclopropyl)-amide] | 0.03 nM | 925 nM
CC(C)(C)OC(=O)N1C[C@H](S(=O)(=O)c2cccc(Cl)c2Cl)C[C@H]1C(=O)NC1(C#N)CC1 [Example 41, (2S,4R)-2-(1-Cyano-cyclopropylcarbamoyl)-4-(2,3-dichloro-benzenesulfonyl)-pyrrolidine-1-carboxylic acid tert-butyl ester] | 31.2 nM | ≥ 25000 nM
CC1(C(=O)N2C[C@H](S(=O)(=O)c3ccc(OCC(F)(F)F)cc3C(F)(F)F)C[C@H]2C(=O)NC2(C#N)CC2)CC1 [Example 211, (2S,4R)-1-(1-Methyl-cyclopropanecarbonyl)-4-[4-(2,2,2-trifluoro-ethoxy)-2-trifluoromethyl-benzenesulfonyl]-pyrrolidine-2-carboxylic acid (1-cyano-cyclopropyl)-amide] | 0.3 nM | 63900 nM
N#CC1(NC(=O)[C@@H]2C[C@@H](S(=O)(=O)c3ccc(OCC(F)(F)F)cc3Cl)CN2C(=O)Cc2ccc(Cl)cc2)CC1 [Example 244, (2S,4R)-1-[2-(4-Chloro-phenyl)-acetyl]-4-[2-chloro-4-(2,2,2-trifluoro-ethoxy)-benzenesulfonyl]-pyrrolidine-2-carboxylic acid (1-cyano-cyclopropyl)-amide] | 3.15 nM | 5900 nM
N#CC1(NC(=O)[C@@H]2C[C@@H](S(=O)(=O)c3ccccc3Cl)CN2C2CCCCC2)CC1 [Example 85, (2S,4R)-4-(2-Chloro-benzenesulfonyl)-1-cyclohexyl-pyrrolidine-2-carboxylic acid (1-cyano-cyclopropyl)-amide] | 9.4 nM | ≥ 25000 nM
Cc1cc(N2C[C@H](S(=O)(=O)c3ccccc3C(F)(F)F)C[C@H]2C(=O)NC2(C#N)CC2)n(CCc2ccccc2)n1 [Example 337, (2S,4R)-1-(5-Methyl-2-phenethyl-2H-pyrazol-3-yl)-4-(2-trifluoromethyl-benzenesulfonyl)-pyrrolidine-2-carboxylic acid (1-cyano-cyclopropyl)-amide] | 1.65 nM | 13000 nM
N#CC1(NC(=O)[C@@H]2C[C@@H](S(=O)(=O)c3ccccc3C(F)(F)F)CN2c2cc(C3CC3)nn2-c2ccc(C(F)(F)F)cc2)CC1 [Example 363, (2S,4R)-1-[5-Cyclopropyl-2-(4-trifluoromethyl-phenyl)-2H-pyrazol-3-yl]-4-(2-trifluoromethyl-benzenesulfonyl)-pyrrolidine-2-carboxylic acid (1-cyano-cyclopropyl)-amide] | 1.5 nM | 10800 nM
N#CC1(NC(=O)[C@@H]2C[C@@H](S(=O)(=O)c3ccccc3Cl)CN2CC(F)(F)F)CC1 [Example 89, (2S,4R)-4-(2-Chloro-benzenesulfonyl)-1-(2,2,2-trifluoro-ethyl)-pyrrolidine-2-carboxylic acid (1-cyano-cyclopropyl)-amide] | 110 nM | ≥ 25000 nM
CC(C)N1CCN(c2ccc(S(=O)(=O)[C@@H]3C[C@@H](C(=O)NC4(C#N)CC4)N(C(=O)C4(c5ccc(Cl)nc5)CC4)C3)c(Cl)c2)CC1 [Example 370, (2S,4R)-4-[2-Chloro-4-(4-isopropyl-piperazin-1-yl)-benzenesulfonyl]-1-[1-(6-chloro-pyridin-3-yl)-cyclopropanecarbonyl]-pyrrolidine-2-carboxylic acid (1-cyano-cyclopropyl)-amide; Compound with Formic Acid] | 0.07 nM | 21.7 nM
N#CC1(NC(=O)[C@@H]2C[C@@H](S(=O)(=O)c3ccccc3C(F)(F)F)CN2c2cc(C3CCOCC3)nn2C2CCC2)CC1 [Example 397, (2S,4R)-1-[2-Cyclobutyl-5-(tetrahydro-pyran-4-yl)-2H-pyrazol-3-yl]-4-(2-trifluoromethyl-benzenesulfonyl)-pyrrolidine-2-carboxylic acid (1-cyano-cyclopropyl)-amide] | 0.435 nM | 7200 nM
COc1cc(C2(C(=O)N3C[C@H](S(=O)(=O)c4ccccc4Cl)C[C@H]3C(=O)NC3(C#N)CC3)CC2)c(Cl)cc1Cl [Example 460, (2S,4R)-4-(2-Chloro-benzenesulfonyl)-1-[1-(2,4-dichloro-5-methoxy-phenyl)-cyclopropanecarbonyl]-pyrrolidine-2-carboxylic acid (1-cyano-cyclopropyl)-amide] | 5.85 nM | 52.5 nM
N#CC1(NC(=O)[C@@H]2C[C@@H](S(=O)(=O)c3cccc(Cl)c3Cl)CN2)CC1 [Example 51, (2S,4R)-4-(2,3-Dichloro-benzenesulfonyl)-pyrrolidine-2-carboxylic acid (1-cyano-cyclopropyl)-amide Hydrochloride] | 26 nM | ≥ 25000 nM
N#CC1(NC(=O)[C@@H]2C[C@@H](S(=O)(=O)c3ccccc3Cl)CN2C(=O)OC2CCCC2)CC1 [Example 98, (2S,4R)-4-(2-Chloro-benzenesulfonyl)-2-(1-cyano-cyclopropylcarbamoyl)-pyrrolidine-1-carboxylic acid Cyclopentyl Ester] | 1.1 nM | 15700 nM
N#CC1(NC(=O)[C@@H]2C[C@@H](S(=O)(=O)c3ccccc3C(F)(F)F)CN2C(=O)C2(C(F)(F)F)CC2)CC1 [Example 205, (2S,4R)-4-(2-Trifluoromethyl-benzenesulfonyl)-1-(1-trifluoromethyl-cyclopropanecarbonyl)-pyrrolidine-2-carboxylic acid (1-cyano-cyclopropyl)-amide] | 0.2 nM | 72000 nM
CC(=O)N1C[C@H](S(=O)(=O)c2ccc(-n3cccn3)cc2C(F)(F)F)C[C@H]1C(=O)NC1(C#N)CC1 [Example 111, (2S,4R)-1-Acetyl-4-(4-pyrazol-1-yl-2-trifluoromethyl-benzenesulfonyl)-pyrrolidine-2-carboxylic acid (1-cyano-cyclopropyl)-amide] | 0.7 nM | ≥ 25000 nM
N#CC1(NC(=O)[C@@H]2C[C@@H](S(=O)(=O)c3ccc(C4CC4)cc3C(F)(F)F)CN2C(=O)C2(C(F)(F)F)CC2)CC1 [Example 256, (2S,4R)-4-(4-Cyclopropyl-2-trifluoromethyl-benzenesulfonyl)-1-(1-trifluoromethyl-cyclopropanecarbonyl)-pyrrolidine-2-carboxylic acid (1-cyano-cyclopropyl)-amide] | 0.26 nM | 45700 nM
